The test system of assay [1] is H1299 NSCLC cells. The assay is described as follows: proliferation of H1299 NSCLC cells. In kind it is cell-based.
The test system of a further assay is H1975 NSCLC cells. Nature of the assay: soft agar colony formation, H1975. The note with it: 5 μM or 30 μM TT-100, 8 days; reduced more at higher dose. Type of assay: cell-based. The procedure: (§1) Colony formation was assessed and compared with the control cells grown in the absence of TT-100.
Assay [2] deals with H1299 NSCLC cells. Nature of the assay: soft agar colony formation, H1299. Type of assay: cell-based. The note with it: 5 μM or 30 μM TT-100, 8 days; reduced more at higher dose. As to the method: as §1
Assay [3] deals with subcutaneous HER2 breast tumors (MCNeuA cells). The assay is described as follows: MCNeuA syngeneic breast cancer model, tumor growth. As to conditions: thrice weekly. In kind it is in vivo, MMTVneu transgenic mice. As to the method:
(§2) MCNeuA cells were implanted in MMTVneu transgenic mice to induce tumor growth. […] Tumor growth was monitored and tumor size was measured at various time points. […] IGF-1R and HER2 phosphorylation were measured by ELISA.

Assay [4] addresses T1, kinase domain of the IGF-1R (Homo sapiens, UniProt P08069).
T1 construct: recombinant proteins representing the kinase domain of the IGF-1R or EGFR (Cell Signaling Technology, Danvers, Mass.); purchased Cell Signaling Technology, Danvers, Mass
The assay is described as follows: RTK activity ELISA, IGF-1R kinase domain. Type of assay: biochemical. The note with it: ATP 10 μM, IRS-1 substrate peptide 0.2 μM, 45 minute reaction. The procedure:
(§3) Inhibition of lipoxygenase activity was determined by use of a lipoxygenase inhibitor screening assay kit (Cayman Chemicals, Ann Arbor, Mich.). […] LOX activity was determined by the amount of hydroperoxides produced, as quantified by colorimetric readout. Inhibition of RTK activity was determined by ELISA as follows. […] The reaction was stopped with 50 mM EDTA, and biotin-conjugated substrate was captured on a 96-well streptavidin-coated plate. Tyrosine phosphorylation of captured substrate was determined by incubation with anti-phosphotyrosine antibody conjugated to HRP (Santa Cruz Biotechnology, Santa Cruz, Calif.) and colorimetric readout on a 96 well plate reader.
Background: ELISA stands for enzyme-linked immunosorbent assay.

The next assay deals with HER2. The assay is described as follows: HER2 phosphorylation in excised breast tumors by ELISA. In kind it is in vivo, MMTVneu transgenic mice. The note with it: tumor excised on day 28, 24 hrs after the final treatment. As to the method: as §2
The target of assay [5] is T2, kinase domain of the EGFR (Homo sapiens, UniProt P00533).
T2 construct: recombinant proteins representing the kinase domain of the IGF-1R or EGFR (Cell Signaling Technology, Danvers, Mass.); purchased Cell Signaling Technology, Danvers, Mass
T2 sequence (P00533 712-979 limits assumed): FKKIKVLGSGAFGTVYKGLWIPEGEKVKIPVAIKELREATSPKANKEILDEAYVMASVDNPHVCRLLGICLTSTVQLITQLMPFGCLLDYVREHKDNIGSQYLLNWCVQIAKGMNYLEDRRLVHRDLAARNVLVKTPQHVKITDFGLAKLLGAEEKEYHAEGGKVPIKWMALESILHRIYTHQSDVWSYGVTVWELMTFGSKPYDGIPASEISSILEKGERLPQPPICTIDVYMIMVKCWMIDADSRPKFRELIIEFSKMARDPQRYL
Nature of the assay: RTK activity ELISA, EGFR kinase domain. The note with it: ATP 10 μM, PTP1B substrate peptide 0.2 μM, 45 minute reaction. In kind it is biochemical. The procedure: as §3

The subject of assay [6] is H1975 NSCLC cells expressing EGFR T790M mutation. The assay is described as follows: proliferation of Iressa-resistant H1975 NSCLC cells. Type of assay: cell-based. As to conditions: 10 μM TT-100, 3 days.
A further assay addresses T3, IGF-1R (Mus musculus, UniProt Q60751).
T3 construct: from tissue; host or cells: excised subcutaneous MCNeuA breast tumours from MMTVneu transgenic mice
The assay is described as follows: IGF-1R phosphorylation in excised breast tumors by ELISA. Type of assay: in vivo, MMTVneu transgenic mice. As to conditions: tumor excised on day 28, 24 hrs after the final treatment. The procedure: as §2

The subject of the next assay is ovarian cancer. As to conditions: ovarian cancer patients; topotecan about 1.5 mg/m^2 i.v. days 1-5 of a 21-day course.

T1 sequence (P08069 999-1274 limits assumed): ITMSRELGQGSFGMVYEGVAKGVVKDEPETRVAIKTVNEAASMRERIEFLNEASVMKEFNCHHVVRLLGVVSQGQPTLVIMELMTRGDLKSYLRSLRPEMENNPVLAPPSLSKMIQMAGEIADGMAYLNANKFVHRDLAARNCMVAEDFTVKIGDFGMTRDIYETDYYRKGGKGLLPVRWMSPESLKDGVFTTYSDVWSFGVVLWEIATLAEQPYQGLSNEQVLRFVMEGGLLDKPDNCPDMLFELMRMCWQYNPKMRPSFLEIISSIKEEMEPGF
T3 sequence (Q60751 31-1373): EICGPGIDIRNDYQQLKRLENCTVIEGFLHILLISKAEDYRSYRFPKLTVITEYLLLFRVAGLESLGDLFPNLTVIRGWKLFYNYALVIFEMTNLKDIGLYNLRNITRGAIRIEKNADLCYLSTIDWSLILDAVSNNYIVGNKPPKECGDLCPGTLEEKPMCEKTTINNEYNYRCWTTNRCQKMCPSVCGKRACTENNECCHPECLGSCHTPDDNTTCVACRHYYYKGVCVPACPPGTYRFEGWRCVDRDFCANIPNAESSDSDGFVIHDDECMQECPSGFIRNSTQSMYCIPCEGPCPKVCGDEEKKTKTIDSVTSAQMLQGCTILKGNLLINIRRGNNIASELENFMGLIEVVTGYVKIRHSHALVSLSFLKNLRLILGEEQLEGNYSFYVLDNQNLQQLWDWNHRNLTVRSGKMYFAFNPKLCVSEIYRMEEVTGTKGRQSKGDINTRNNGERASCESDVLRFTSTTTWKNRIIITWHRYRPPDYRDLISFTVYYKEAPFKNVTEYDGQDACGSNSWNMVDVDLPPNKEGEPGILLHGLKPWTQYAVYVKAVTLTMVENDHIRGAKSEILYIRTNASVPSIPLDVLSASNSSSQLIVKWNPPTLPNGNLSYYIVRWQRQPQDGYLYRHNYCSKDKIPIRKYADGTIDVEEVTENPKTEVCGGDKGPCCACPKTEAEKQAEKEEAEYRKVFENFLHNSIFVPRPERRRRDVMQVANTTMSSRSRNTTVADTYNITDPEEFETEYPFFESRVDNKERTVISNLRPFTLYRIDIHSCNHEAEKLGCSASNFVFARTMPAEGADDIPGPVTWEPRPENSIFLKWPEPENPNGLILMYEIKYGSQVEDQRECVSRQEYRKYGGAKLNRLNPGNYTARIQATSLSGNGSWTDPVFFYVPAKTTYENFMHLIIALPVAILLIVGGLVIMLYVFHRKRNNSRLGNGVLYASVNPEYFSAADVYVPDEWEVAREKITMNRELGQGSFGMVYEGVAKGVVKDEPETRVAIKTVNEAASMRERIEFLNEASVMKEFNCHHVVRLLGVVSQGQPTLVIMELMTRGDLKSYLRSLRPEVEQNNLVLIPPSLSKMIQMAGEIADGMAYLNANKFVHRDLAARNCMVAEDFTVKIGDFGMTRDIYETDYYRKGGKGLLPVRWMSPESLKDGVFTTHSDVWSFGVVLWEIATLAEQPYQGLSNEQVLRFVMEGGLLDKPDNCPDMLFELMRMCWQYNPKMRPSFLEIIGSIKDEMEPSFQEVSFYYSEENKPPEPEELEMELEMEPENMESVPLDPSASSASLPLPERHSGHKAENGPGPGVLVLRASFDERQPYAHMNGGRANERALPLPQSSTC
From the text for ovarian cancer: This example describes a randomized, blinded, placebo-controlled, multicenter, Phase II study designed to provide a preliminary assessment of the safety and efficacy of combining NDGA with topotecan in patients with ovarian cancer. Approximately about 100—about 800 patients are enrolled, with about 50—about 400 patients being assigned to a treatment group and about 50—about 400 patients assigned to a placebo group. The trial will consist of the administration of intravenous repeating doses of NDGA as described above in Example 11 combined with topotecan at about 1.5 mg/m^2 by intravenous infusion on days 1-5 of a 21-day course, with courses repeating throughout the study. Control patients are administered topotecan with placebo. […] Additional outcome measures are as follows:
Primary outcome measure: progression-free survival.

For the compound `COc1cc2ncnc(Nc3ccc(F)c(Cl)c3)c2cc1OCCCN1CCOCC1` [Iressa, Gefitinib, reference compound], the “proliferation (percent growth of the control cells), Iressa alone” value in the assay with H1299 NSCLC cells [1] (1 μM Iressa, 3 days) was “resistant”.

As for `CC(Cc1ccc(O)c(O)c1)C(C)Cc1ccc(O)c(O)c1` (stereo not drawn) [TT-100, nordihydroguaiaretic acid], the “colony formation in soft agar” value with H1975 NSCLC cells and in the assay with H1299 NSCLC cells [2] was “inhibited colony formation” in each case. The “proliferation (percent growth of the control cells), TT-100 alone” value with H1299 NSCLC cells [1] (10 μM or 20 μM TT-100, 3 days, especially at 20 μM) was “inhibited the proliferation”. Besides, the “tumor growth (tumor size)” value in assay [3] (37.5 mg/kg i.p.) and in [3] (100 mg/kg by gavage (oral)) was “inhibited the growth” in each case. For the same compound, in assay [4], the “inhibition of tyrosine kinase activity of purified IGF-1R” value is given as “directly inhibits”. Also, the “HER2 receptor phosphorylation compared to vehicle-treated control” value with HER2 is given as “significantly inhibited”. In addition, in assay [5], the “inhibition of tyrosine kinase activity of purified EGFR” value was “directly inhibits”. The “reduction of proliferation (percent growth of the control cells)” value in [6] is “approximately 50%”. In addition, the “IGF-1R receptor phosphorylation compared to vehicle-treated control” value on IGF-1R was “significantly inhibited”.

On to `CC[C@@]1(O)C(=O)OCc2c1cc1n(c2=O)Cc2cc3c(CN(C)C)c(O)ccc3nc2-1` [topotecan], for which the “progression free survival (goal of the study)” value in the assay on ovarian cancer is given as 3-6 months.

The values are drawn from US8710104B2, “Catecholic butanes and use thereof for cancer therapy” (Triact Therapeutics, Inc., priority 2008, dated 2014).
